# From ChEMBL document CHEMBL1151974, “Sesquiterpenoids and phenylpropanoids from pericarps of Illicium oligandrum” (2009)
# Key:
# SH-SY5Y [1] = assay: Neuroprotective activity against H2O2-induced human SH-SY5Y cell damage assessed as increase in cell viability at 1 uM pretreated 2 hrs before H2O2 challenge relative to control; type: functional
# SH-SY5Y [2] = assay: Neuroprotective activity against H2O2-induced human SH-SY5Y cell damage assessed as increase in cell viability at 10 uM pretreated 2 hrs before H2O2 challenge relative to control; type: functional
Molecule,Activity (SH-SY5Y [1]) [%],Activity (SH-SY5Y [2]) [%]
C[C@]12COC(=O)C[C@@]3(CC(=O)[C@]1(C)O)[C@]2(O)CC[C@]3(C)O,2.76,
VITAMIN E,,7.16
C[C@@]12COC(=O)[C@]1(C)[C@@H](O)[C@]13CC(=O)O[C@@]1(C)CC[C@]23O [ANISLACTONE B],12.55,
C[C@@H]1[C@H](O)C[C@]23OC(=O)C[C@]12C[C@]1(O)OC[C@]3(C)[C@@H]1C [PSEUDOMAJUCIN],,2.83
COc1ccc([C@@H](O)[C@H](C)O)cc1 (relative stereo) [ERYTHRO ANETHOLE GLYCOL],,7.29
COc1ccc([C@@H]2O[C@@H]3[C@@H](O[C@H]2C)O[C@H](CO)[C@@H](O)[C@@H]3O)cc1 [OLIGANDRUMIN E],,6.42
